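Interpolation was linear, between the two tested concentrations surrounding the appropriate level; five concentrations were tested over 48 hours in 96-well plates. TGI: total growth inhibition.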
Experiments:
Test in all cases: NCI-60 cell line screen, 48 h
786-0 renal = tested on: 786-0 renal
A498 renal = tested on: A498 renal
A549 NSCLC = tested on: A549 NSCLC
ACHN renal = tested on: ACHN renal
CAKI-1 renal = tested on: CAKI-1 renal
CCRF-CEM leukemia = tested on: CCRF-CEM leukemia
COLO 205 colon = tested on: COLO 205 colon
DU-145 prostate = tested on: DU-145 prostate
EKVX NSCLC = tested on: EKVX NSCLC
HCC-2998 colon = tested on: HCC-2998 colon
HCT-116 colon = tested on: HCT-116 colon
HCT-15 colon = tested on: HCT-15 colon
HL-60(TB) leukemia = tested on: HL-60(TB) leukemia
HOP-62 NSCLC = tested on: HOP-62 NSCLC
HOP-92 NSCLC = tested on: HOP-92 NSCLC
HS 578T breast = tested on: HS 578T breast
HT29 colon = tested on: HT29 colon
K-562 leukemia = tested on: K-562 leukemia
KM12 colon = tested on: KM12 colon
LOX IMVI melanoma = tested on: LOX IMVI melanoma
M14 melanoma = tested on: M14 melanoma
MALME-3M melanoma = tested on: MALME-3M melanoma
MCF7 breast = tested on: MCF7 breast
MDA-MB-231 breast = tested on: MDA-MB-231 breast
MDA-MB-435 = tested on: MDA-MB-435
MDA-N = tested on: MDA-N
MOLT-4 leukemia = tested on: MOLT-4 leukemia
NCI-H226 lung = tested on: NCI-H226 lung
NCI-H23 lung = tested on: NCI-H23 lung
NCI-H460 lung = tested on: NCI-H460 lung
NCI/ADR-RES ovarian = tested on: NCI/ADR-RES ovarian
OVCAR-3 ovarian = tested on: OVCAR-3 ovarian
OVCAR-4 ovarian = tested on: OVCAR-4 ovarian
OVCAR-5 ovarian = tested on: OVCAR-5 ovarian
PC-3 prostate = tested on: PC-3 prostate
RPMI-8226 leukemia = tested on: RPMI-8226 leukemia
RXF 393 renal = tested on: RXF 393 renal
SF-268 CNS = tested on: SF-268 CNS
SF-295 CNS = tested on: SF-295 CNS
SF-539 CNS = tested on: SF-539 CNS
SK-MEL-2 melanoma = tested on: SK-MEL-2 melanoma
SK-MEL-28 melanoma = tested on: SK-MEL-28 melanoma
SK-MEL-5 melanoma = tested on: SK-MEL-5 melanoma
SK-OV-3 ovarian = tested on: SK-OV-3 ovarian
SN12C renal = tested on: SN12C renal
SNB-19 CNS = tested on: SNB-19 CNS
SNB-75 CNS = tested on: SNB-75 CNS
SR leukemia = tested on: SR leukemia
SW-620 colon = tested on: SW-620 colon
T-47D breast = tested on: T-47D breast
TK-10 renal = tested on: TK-10 renal
U251 CNS = tested on: U251 CNS
UACC-257 melanoma = tested on: UACC-257 melanoma
UACC-62 melanoma = tested on: UACC-62 melanoma
UO-31 renal = tested on: UO-31 renal
BT-549 breast = tested on: BT-549 breast
IGROV1 ovarian = tested on: IGROV1 ovarian
NCI-H522 lung = tested on: NCI-H522 lung
OVCAR-8 ovarian = tested on: OVCAR-8 ovarian

Structure (SMILES): O=C1CC(c2ccc(Cl)cc2)C2(C(=O)NC(=S)NC2=O)C(c2ccc(Cl)cc2)C1 (stereo not given)
- TGI (786-0 renal): > 100 µM
- TGI (A498 renal): 31.4 µM
- TGI (A549 NSCLC): 73 µM
- TGI (ACHN renal): > 100 µM
- TGI (CAKI-1 renal): 74.6 µM
- TGI (CCRF-CEM leukemia): 75.4 µM
- TGI (COLO 205 colon): 30.6 µM
- TGI (DU-145 prostate): > 100 µM
- TGI (EKVX NSCLC): 91.7 µM
- TGI (HCC-2998 colon): 43.3 µM
- TGI (HCT-116 colon): 45.5 µM
- TGI (HCT-15 colon): 52.8 µM
- TGI (HL-60(TB) leukemia): 57.2 µM
- TGI (HOP-62 NSCLC): 54.7 µM
- TGI (HOP-92 NSCLC): 40.3 µM
- TGI (HS 578T breast): 99.4 µM
- TGI (HT29 colon): 32.4 µM
- TGI (K-562 leukemia): 74.1 µM
- TGI (KM12 colon): 40.1 µM
- TGI (LOX IMVI melanoma): > 100 µM
- TGI (M14 melanoma): 44.7 µM
- TGI (MALME-3M melanoma): 52.1 µM
- TGI (MCF7 breast): 32.1 µM
- TGI (MDA-MB-231 breast): 46.8 µM
- TGI (MDA-MB-435): 39.9 µM
- TGI (MDA-N): 34.1 µM
- TGI (MOLT-4 leukemia): 89.5 µM
- TGI (NCI-H226 lung): 66.9 µM
- TGI (NCI-H23 lung): 39 µM
- TGI (NCI-H460 lung): 30.5 µM
- TGI (NCI/ADR-RES ovarian): 52 µM
- TGI (OVCAR-3 ovarian): 33.9 µM
- TGI (OVCAR-4 ovarian): 37.9 µM
- TGI (OVCAR-5 ovarian): 47.7 µM
- TGI (PC-3 prostate): 55.1 µM
- TGI (RPMI-8226 leukemia): 51.2 µM
- TGI (RXF 393 renal): 29.4 µM
- TGI (SF-268 CNS): 31.9 µM
- TGI (SF-295 CNS): 35.9 µM
- TGI (SF-539 CNS): 40.9 µM
- TGI (SK-MEL-2 melanoma): 36.1 µM
- TGI (SK-MEL-28 melanoma): 30.6 µM
- TGI (SK-MEL-5 melanoma): 33.1 µM
- TGI (SK-OV-3 ovarian): 29 µM
- TGI (SN12C renal): 40.6 µM
- TGI (SNB-19 CNS): 36.6 µM
- TGI (SNB-75 CNS): 30.2 µM
- TGI (SR leukemia): > 100 µM
- TGI (SW-620 colon): 44.7 µM
- TGI (T-47D breast): 74.1 µM
- TGI (TK-10 renal): > 100 µM
- TGI (U251 CNS): 79.7 µM
- TGI (UACC-257 melanoma): 37.6 µM
- TGI (UACC-62 melanoma): 34.4 µM
- TGI (UO-31 renal): 48.9 µM

Structure (SMILES): C/C=C1/CN2CCC34C(=C(C(=O)OC)C1CC23)Nc1ccc(O)cc14 (stereo not given)
- TGI (786-0 renal): > 100 µM
- TGI (A498 renal): > 100 µM
- TGI (A549 NSCLC): > 100 µM
- TGI (ACHN renal): > 100 µM
- TGI (BT-549 breast): > 100 µM
- TGI (CAKI-1 renal): > 100 µM
- TGI (CCRF-CEM leukemia): > 100 µM
- TGI (COLO 205 colon): > 100 µM
- TGI (DU-145 prostate): > 100 µM
- TGI (EKVX NSCLC): > 100 µM
- TGI (HCC-2998 colon): > 100 µM
- TGI (HCT-116 colon): > 100 µM
- TGI (HCT-15 colon): > 100 µM
- TGI (HL-60(TB) leukemia): > 100 µM
- TGI (HOP-92 NSCLC): > 100 µM
- TGI (HS 578T breast): > 100 µM
- TGI (HT29 colon): > 100 µM
- TGI (IGROV1 ovarian): > 100 µM
- TGI (KM12 colon): > 100 µM
- TGI (LOX IMVI melanoma): > 100 µM
- TGI (M14 melanoma): > 100 µM
- TGI (MALME-3M melanoma): > 100 µM
- TGI (MCF7 breast): > 100 µM
- TGI (MDA-MB-231 breast): > 100 µM
- TGI (MDA-MB-435): > 100 µM
- TGI (MDA-N): > 100 µM
- TGI (MOLT-4 leukemia): > 100 µM
- TGI (NCI-H226 lung): > 100 µM
- TGI (NCI-H23 lung): > 100 µM
- TGI (NCI-H460 lung): > 100 µM
- TGI (NCI-H522 lung): > 100 µM
- TGI (NCI/ADR-RES ovarian): > 100 µM
- TGI (OVCAR-3 ovarian): > 100 µM
- TGI (OVCAR-4 ovarian): > 100 µM
- TGI (OVCAR-5 ovarian): > 100 µM
- TGI (OVCAR-8 ovarian): > 100 µM
- TGI (PC-3 prostate): > 100 µM
- TGI (RPMI-8226 leukemia): > 100 µM
- TGI (SF-268 CNS): > 100 µM
- TGI (SF-295 CNS): > 100 µM
- TGI (SF-539 CNS): > 100 µM
- TGI (SK-MEL-2 melanoma): > 100 µM
- TGI (SK-MEL-28 melanoma): > 100 µM
- TGI (SK-MEL-5 melanoma): > 100 µM
- TGI (SK-OV-3 ovarian): > 100 µM
- TGI (SN12C renal): > 100 µM
- TGI (SNB-19 CNS): > 100 µM
- TGI (SNB-75 CNS): > 100 µM
- TGI (SW-620 colon): > 100 µM
- TGI (T-47D breast): > 100 µM
- TGI (TK-10 renal): > 100 µM
- TGI (U251 CNS): > 100 µM
- TGI (UACC-257 melanoma): > 100 µM
- TGI (UACC-62 melanoma): > 100 µM
- TGI (UO-31 renal): > 100 µM
